From article PMC12881674, “Activation of TRPV3 channels in bladder cancer cells stimulates ATP release” (Molecular Pharmacology, 2025)

Tests used:
HEK293 cells = test system: HEK293 cells; parameters: method as in PMID 35916168; conditions: >10 μM; cited from earlier work
KU-19-19 cells = experiment: ATPlite luminescence assay of extracellular ATP; type: cell-based, human; conditions: pretreatment with 10 μM ruthenium red, 50 μM AV3-1
Protocol: KU-19-19 cells (1 × 10^5 per well) were plated in 24-well plates and cultured for 24 hours. Medium was removed, and wells were washed with PBS before adding 1 mL of drugs dissolved in PBS. After 30 minutes, 100 μL of the supernatant was transferred to a 96-well plate. ATP content was measured using the ATPlite luminescence ATP assay (Revvity, catalog number 6016943) following manufacturer’s instructions. Luminescence was recorded using a Polarstar Omega reader and normalized to control wells without addition of drugs.
Fig. 4 TRPV3 activation by AV3-1 was enhanced by cholesterol supplementation and causes ATP release in KU-19-19 bladder cancer cells. […] Current amplitudes were recorded using voltage ramps from −100 mV to +100 mV (500-millisecond duration) and expressed as current density (pA/pF) measured at +100 mV and −100 mV. (C) Quantification of current densities (pA/pF) at −100 mV (inward current) and +100 mV (outward current) at the time points (1, 2) as indicated in (A, B). […] Statistical significance was determined using Kruskal-Wallis ANOVA followed by Conover test; ∗P < .05. […] Inset: Box-and-whisker plots of AV3-1 potencies under control conditions (open box) and following cholesterol supplementation (gray box), derived from individual concentration-response fits and expressed as pEC50 (-log10(EC50 [M])). […]

Row | SMILES | effects on HEK293 cells at higher concentrations (HEK293 cells) | effect on AV3-1-evoked ATP release (KU-19-19 cells)
1 | Cc1ccc(O)c(C2CCC(C(C)C)=C2Cl)c1 (centres unmarked) [KS0365] | nonspecific effects | 
2 | N.N.N.N.N.N.N.N.N.N.N.N.N.N.[Cl-].[Cl-].[Cl-].[Cl-].[Cl-].[Cl-].[O-2].[O-2].[Ru+3].[Ru+3].[Ru+4] [ruthenium red, reference compound] |  | reduced ATP levels
